This is an account of results in ChEMBL document CHEMBL1201862, “PubChem BioAssay data set” (2004).

Activity calls are given as the source filed them.

The target in test [1] is T1, Beta-lactamase (Pseudomonas aeruginosa, UniProt Q79MP6). In words: IMP-1 metallo-beta-lactamase inhibitors, dose response, selectivity assay for VIM-2 inhibitor project, biochemical, epi-absorbance (AID 1920).
The target of test [2] is Beta-lactamase (Salmonella choleraesuis (strain SC-B67), UniProt Q5J463). Kind of test: Epi-absorbance-based counterscreen for selective VIM-2 inhibitors: dose response biochemical high throughput screening assay to identify inhibitors of TEM-1 serine-beta-lactamase.
Test [3] addresses T1, Beta-lactamase. Kind of test: […] counterscreen for selective VIM-2 inhibitors: dose response biochemical high throughput screening assay to identify inhibitors of IMP-1 metallo-beta-lactamase.
Test [4] addresses Fructose-bisphosphate aldolase (Mycobacterium tuberculosis, UniProt P9WQA3). Kind of test: Fluorescence-based biochemical high throughput dose response assay for inhibitors of the fructose-bisphosphate aldolase (FBA) of M. tuberculosis. It counts as functional.
Test [5] is described as follows: cells. It counts as functional, cell-based.
Test [6] can be described thus: cells. It counts as functional, cell-based. This is another data set of the same source.
Test [7] addresses 72 kDa type IV collagenase (Homo sapiens, UniProt P08253). Kind of test: Dose Response validation of uHTS RPN11 inhibitor hits using a MMP-2 Fluorescence assay. It counts as functional.
Test [8] has as its target T2, Voltage-gated N-type calcium channel alpha-1B subunit/Amyloid beta A4 precursor protein-binding family A member 1 (Homo sapiens, UniProt Q00975+Q02410). Format: protein assay.
Test [9] concerns the target Arf-GAP with SH3 domain, ANK repeat and PH domain-containing protein 1 (Homo sapiens, UniProt Q9ULH1). Format: functional.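 Note: biochemical fluorescence polarization dose–response screen measuring inhibition of ASAP1; ASAP1 GAP domain stimulating GTP hydrolysis by truncated human ARF1.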
The target in test [10] is 26S proteasome non-ATPase regulatory subunit 14 (Homo sapiens, UniProt O00487). Kind of test: inhibition of proteasome subunit RPN11 – biochemical, fluorescence polarization, uHTS hits, confirmation (AID 602368). Format: functional.
The target in test [11] is Prothrombin (Bos taurus, UniProt P00735). In words: thrombin inhibition, dose response, biochemical, fluorescence polarization, uHTS hits (AID 602369). It counts as functional. (Fluorescence polarisation rises when a labelled molecule tumbles more slowly, as on binding a larger partner.)
For test [12], the target named is T2, Voltage-gated N-type calcium channel alpha-1B subunit/Amyloid beta A4 precursor protein-binding family A member 1. Format: protein assay. The source holds these as a separate data set.
In test [13] the target is T3, Carboxy-terminal domain RNA polymerase II polypeptide A small phosphatase 1 (Homo sapiens, UniProt Q9GZU7).
T3 sequence (Q9GZU7 whole entry): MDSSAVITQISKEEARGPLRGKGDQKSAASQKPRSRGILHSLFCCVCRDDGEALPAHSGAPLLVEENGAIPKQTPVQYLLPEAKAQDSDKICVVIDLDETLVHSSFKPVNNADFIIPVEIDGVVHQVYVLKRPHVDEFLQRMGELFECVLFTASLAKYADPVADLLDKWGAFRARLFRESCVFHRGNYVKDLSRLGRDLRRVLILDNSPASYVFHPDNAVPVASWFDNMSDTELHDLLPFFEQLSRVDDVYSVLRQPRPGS
Kind of test: inhibitors of CTDSP1, concentration-response testing, biochemical assay, absorbance-based, actives from ultra-high-throughput screening (AID 540297). It counts as functional.

Test [14] concerns the target T4, Sentrin-specific protease 8 (Homo sapiens, UniProt Q96LD8).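 Note: luminescence read-out of SENP8 inhibition, dose-response confirmation following an ultra-high-throughput screen.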
T4 sequence (Q96LD8 whole entry): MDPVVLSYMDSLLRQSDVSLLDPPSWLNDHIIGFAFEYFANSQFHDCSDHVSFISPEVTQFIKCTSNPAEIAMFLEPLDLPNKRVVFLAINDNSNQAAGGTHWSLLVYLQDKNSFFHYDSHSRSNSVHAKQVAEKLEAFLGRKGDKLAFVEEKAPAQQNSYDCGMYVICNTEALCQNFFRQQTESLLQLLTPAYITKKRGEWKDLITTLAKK
Format: functional.

Test [15] addresses T5, Caspase-3 (Homo sapiens, UniProt P42574).
T5 sequence (P42574 whole entry): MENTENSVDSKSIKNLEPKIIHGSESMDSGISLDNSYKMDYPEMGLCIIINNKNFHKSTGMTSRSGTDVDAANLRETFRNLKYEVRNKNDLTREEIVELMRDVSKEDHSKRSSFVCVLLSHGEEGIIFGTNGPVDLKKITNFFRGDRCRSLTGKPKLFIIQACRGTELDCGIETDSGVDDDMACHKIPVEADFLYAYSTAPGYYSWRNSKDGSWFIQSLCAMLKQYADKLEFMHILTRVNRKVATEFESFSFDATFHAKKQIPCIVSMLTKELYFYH
Format: functional.

In test [16] the target is T6, Sentrin-specific protease 6 (Homo sapiens, UniProt Q9GZR1).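 Note: Luminescence-based dose-response confirmatory assay of SENP6 inhibition, following up an ultra-high-throughput screen.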
T6 sequence (Q9GZR1 whole entry): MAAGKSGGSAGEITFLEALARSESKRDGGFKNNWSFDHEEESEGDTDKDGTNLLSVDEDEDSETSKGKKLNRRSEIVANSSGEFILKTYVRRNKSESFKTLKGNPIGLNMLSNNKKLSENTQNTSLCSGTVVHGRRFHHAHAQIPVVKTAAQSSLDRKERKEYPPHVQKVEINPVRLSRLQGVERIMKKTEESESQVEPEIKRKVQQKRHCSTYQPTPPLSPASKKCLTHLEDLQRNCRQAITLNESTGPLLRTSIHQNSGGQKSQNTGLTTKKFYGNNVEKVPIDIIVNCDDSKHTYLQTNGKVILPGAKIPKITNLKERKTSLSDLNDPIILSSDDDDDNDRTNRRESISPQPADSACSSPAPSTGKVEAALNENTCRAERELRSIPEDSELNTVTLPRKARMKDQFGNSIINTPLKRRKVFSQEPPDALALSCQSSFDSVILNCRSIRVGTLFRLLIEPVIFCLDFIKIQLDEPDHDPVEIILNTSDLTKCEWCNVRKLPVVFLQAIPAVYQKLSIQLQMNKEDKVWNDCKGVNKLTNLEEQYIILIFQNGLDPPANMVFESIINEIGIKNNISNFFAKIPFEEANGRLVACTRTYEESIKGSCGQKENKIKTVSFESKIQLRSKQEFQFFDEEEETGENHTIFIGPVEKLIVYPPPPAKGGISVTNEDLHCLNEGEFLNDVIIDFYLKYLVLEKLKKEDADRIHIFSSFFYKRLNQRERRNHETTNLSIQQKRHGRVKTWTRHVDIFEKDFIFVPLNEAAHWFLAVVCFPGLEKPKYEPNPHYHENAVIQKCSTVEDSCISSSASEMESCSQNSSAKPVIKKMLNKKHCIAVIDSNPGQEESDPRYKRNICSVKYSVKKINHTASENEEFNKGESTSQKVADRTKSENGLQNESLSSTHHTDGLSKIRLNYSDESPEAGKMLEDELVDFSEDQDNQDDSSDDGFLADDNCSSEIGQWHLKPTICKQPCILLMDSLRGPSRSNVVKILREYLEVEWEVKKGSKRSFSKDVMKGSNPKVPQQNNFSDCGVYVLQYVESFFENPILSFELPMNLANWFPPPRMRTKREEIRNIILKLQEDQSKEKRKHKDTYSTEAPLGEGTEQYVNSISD
It counts as functional.

Test [17] deals with T7, Sentrin-specific protease 7 (Homo sapiens, UniProt Q9BQF6).
T7 sequence (Q9BQF6 whole entry): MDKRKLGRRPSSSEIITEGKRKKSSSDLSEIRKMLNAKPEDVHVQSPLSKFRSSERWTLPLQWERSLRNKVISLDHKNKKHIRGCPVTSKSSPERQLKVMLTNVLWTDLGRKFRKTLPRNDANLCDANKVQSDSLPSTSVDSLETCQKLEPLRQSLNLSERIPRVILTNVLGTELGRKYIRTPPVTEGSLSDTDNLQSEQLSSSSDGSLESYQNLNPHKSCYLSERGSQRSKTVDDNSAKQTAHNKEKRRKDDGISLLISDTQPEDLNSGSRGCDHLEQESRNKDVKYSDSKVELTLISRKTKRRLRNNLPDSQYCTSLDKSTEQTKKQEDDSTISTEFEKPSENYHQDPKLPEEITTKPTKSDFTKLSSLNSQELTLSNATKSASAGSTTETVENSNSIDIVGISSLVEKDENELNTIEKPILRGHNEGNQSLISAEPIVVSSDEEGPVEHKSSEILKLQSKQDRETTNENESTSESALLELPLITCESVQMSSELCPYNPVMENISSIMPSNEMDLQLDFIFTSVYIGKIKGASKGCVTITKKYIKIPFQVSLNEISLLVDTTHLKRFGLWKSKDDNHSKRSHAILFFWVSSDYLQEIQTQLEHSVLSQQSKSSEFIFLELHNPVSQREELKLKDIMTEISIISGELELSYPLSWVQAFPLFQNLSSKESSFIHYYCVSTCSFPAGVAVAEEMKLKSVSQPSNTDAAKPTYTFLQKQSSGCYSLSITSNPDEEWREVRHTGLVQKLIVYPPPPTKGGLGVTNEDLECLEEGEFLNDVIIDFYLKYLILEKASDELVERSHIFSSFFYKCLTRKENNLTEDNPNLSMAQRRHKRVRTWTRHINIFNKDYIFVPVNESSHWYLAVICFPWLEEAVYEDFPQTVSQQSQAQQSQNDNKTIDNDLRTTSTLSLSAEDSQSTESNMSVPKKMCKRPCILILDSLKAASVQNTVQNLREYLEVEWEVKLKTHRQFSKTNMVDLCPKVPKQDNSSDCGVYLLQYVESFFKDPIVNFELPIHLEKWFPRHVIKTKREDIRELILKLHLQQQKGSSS
It counts as functional.

The nature of test [18]: Counterscreen for antagonists of the human trace amine associated receptor 1 (hTAAR1): Fluorescence-based cell-based high throughput dose response assay to identify nonselective Ga16 antagonists. Format: functional. (Counterscreens check selectivity or assay interference.)
For test [19], the target named is T8, Trace amine-associated receptor 1 (Homo sapiens, UniProt Q96RJ0).
T8 sequence (Q96RJ0 whole entry): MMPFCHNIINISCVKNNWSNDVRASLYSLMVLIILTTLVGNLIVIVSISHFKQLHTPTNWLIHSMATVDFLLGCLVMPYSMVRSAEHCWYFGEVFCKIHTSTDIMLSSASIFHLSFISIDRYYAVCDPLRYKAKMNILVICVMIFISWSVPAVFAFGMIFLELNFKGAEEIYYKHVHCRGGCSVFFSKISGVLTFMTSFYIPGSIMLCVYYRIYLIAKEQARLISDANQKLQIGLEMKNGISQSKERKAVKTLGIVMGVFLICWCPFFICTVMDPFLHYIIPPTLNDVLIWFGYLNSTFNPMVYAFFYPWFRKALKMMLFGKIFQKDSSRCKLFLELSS
Kind of test: Counterscreen for antagonists of the human trace amine associated receptor 1 (hTAAR1): Fluorescence-based cell-based high throughput dose response assay to identify TAAR1 Agonists. Format: functional.

The nature of test [20]: Counterscreen for […] of the human trace amine associated receptor 1 (TAAR1): Fluorescence-based cell-based high throughput dose response assay to identify nonselective Ga16 agonists. Format: functional.
Test [21] addresses T8, Trace amine-associated receptor 1. In words: Fluorescence-based cell-based high throughput dose response assay to identify antagonists of the human trace amine associated receptor 1 (TAAR1). It counts as functional.
Test [22] is described as follows: cells. Format: functional, cell-based. This is another data set of the same source.
Test [23] deals with T8, Trace amine-associated receptor 1. In words: Fluorescence-based cell-based high throughput dose response assay to identify agonists of the human trace amine associated receptor 1 (TAAR1). Format: functional.
Test [24] has the same target. In words: Counterscreen for agonists of the human trace amine associated receptor 1 (hTAAR1): Fluorescence-based cell-based high throughput dose response assay to identify hTAAR1 agonist that also desensitize TAAR1 receptor response. Format: functional.
Test [25] is described as follows: cells. Format: functional, cell-based. The source holds these as a separate data set.
Test [26] deals with Ras and Rab interactor 1/Tyrosine-protein kinase ABL1 (Homo sapiens, UniProt P00519+Q13671). It counts as functional.

As a reminder, the IC50 is the point on the concentration scale where inhibition reaches its midpoint. The term EC50 denotes the midpoint of the concentration-response curve.

T1 sequence (Q79MP6 whole entry): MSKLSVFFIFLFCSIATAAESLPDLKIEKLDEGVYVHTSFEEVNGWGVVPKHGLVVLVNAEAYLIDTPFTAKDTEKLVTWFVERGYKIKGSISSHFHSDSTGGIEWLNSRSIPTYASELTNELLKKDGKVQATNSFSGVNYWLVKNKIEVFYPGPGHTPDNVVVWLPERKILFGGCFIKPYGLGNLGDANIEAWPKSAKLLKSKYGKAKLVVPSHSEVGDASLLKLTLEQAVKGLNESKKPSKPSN
Sequence of Fructose-bisphosphate aldolase (P9WQA3 whole entry): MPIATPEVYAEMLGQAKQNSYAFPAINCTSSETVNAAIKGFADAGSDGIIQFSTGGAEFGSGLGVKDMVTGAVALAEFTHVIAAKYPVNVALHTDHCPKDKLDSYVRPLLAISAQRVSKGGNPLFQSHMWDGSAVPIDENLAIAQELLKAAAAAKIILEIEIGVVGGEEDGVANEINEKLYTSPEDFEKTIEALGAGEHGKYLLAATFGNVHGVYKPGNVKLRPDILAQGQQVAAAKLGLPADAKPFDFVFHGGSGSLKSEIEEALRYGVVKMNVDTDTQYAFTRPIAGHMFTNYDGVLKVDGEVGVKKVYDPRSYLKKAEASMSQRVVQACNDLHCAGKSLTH
T2 sequence (Q00975 whole entry, the tested form may be a part): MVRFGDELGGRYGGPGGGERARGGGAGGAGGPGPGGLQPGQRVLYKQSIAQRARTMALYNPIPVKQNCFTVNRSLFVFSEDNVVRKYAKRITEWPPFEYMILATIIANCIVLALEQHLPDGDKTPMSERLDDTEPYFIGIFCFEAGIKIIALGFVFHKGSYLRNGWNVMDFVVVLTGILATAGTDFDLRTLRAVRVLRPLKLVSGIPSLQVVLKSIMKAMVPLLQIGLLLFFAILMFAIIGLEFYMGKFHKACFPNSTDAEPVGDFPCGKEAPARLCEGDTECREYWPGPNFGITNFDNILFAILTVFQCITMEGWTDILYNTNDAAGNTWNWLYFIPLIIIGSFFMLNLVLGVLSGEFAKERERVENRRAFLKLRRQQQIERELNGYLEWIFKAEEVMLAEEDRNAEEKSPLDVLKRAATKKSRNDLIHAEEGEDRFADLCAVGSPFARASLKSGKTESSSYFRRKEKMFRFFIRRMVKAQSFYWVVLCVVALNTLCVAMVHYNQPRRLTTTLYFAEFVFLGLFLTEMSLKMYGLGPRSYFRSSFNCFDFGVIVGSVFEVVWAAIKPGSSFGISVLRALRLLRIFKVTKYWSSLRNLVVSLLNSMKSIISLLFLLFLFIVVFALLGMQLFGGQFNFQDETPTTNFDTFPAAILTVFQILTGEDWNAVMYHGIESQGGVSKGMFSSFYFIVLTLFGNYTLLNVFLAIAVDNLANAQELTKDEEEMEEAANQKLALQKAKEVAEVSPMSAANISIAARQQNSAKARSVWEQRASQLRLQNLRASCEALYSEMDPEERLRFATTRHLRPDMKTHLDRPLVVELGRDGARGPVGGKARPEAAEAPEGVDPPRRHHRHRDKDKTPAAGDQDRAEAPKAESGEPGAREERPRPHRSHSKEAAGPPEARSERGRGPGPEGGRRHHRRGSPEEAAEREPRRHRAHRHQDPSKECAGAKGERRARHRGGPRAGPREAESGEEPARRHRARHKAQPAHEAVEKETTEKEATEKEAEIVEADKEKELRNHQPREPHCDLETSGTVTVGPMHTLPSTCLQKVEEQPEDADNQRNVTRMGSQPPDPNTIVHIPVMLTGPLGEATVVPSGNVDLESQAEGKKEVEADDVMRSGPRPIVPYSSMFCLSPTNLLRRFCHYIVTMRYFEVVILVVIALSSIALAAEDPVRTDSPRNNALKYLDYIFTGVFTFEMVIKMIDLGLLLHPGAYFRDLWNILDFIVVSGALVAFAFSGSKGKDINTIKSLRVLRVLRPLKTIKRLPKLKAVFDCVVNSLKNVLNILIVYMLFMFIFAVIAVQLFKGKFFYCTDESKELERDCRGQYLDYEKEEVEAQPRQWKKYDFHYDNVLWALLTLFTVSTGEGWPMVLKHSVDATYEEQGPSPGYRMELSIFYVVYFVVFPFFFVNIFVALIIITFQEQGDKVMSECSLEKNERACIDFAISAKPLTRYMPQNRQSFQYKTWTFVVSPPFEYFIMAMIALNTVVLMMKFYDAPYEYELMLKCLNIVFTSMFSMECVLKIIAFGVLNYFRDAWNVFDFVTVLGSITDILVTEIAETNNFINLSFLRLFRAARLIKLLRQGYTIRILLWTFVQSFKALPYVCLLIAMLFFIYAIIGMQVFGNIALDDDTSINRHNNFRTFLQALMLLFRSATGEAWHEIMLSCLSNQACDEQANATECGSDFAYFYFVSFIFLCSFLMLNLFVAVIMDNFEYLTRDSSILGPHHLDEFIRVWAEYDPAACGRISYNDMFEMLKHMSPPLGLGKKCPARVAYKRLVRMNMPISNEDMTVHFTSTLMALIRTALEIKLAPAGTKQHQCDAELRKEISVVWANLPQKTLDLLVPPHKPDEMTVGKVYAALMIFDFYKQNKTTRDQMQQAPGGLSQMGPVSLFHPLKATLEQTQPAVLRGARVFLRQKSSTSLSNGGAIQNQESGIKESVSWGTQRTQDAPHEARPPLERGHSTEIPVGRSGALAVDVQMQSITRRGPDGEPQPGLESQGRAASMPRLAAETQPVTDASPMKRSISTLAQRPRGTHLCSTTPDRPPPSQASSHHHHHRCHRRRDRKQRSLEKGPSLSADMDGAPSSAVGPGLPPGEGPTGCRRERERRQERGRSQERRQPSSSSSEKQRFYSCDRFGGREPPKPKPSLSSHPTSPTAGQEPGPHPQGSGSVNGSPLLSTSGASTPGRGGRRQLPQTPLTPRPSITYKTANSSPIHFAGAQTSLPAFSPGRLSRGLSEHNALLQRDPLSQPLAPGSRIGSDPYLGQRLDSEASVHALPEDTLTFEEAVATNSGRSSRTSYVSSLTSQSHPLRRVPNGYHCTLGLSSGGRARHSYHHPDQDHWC
T2 sequence (Q02410 whole entry, the tested form may be a part): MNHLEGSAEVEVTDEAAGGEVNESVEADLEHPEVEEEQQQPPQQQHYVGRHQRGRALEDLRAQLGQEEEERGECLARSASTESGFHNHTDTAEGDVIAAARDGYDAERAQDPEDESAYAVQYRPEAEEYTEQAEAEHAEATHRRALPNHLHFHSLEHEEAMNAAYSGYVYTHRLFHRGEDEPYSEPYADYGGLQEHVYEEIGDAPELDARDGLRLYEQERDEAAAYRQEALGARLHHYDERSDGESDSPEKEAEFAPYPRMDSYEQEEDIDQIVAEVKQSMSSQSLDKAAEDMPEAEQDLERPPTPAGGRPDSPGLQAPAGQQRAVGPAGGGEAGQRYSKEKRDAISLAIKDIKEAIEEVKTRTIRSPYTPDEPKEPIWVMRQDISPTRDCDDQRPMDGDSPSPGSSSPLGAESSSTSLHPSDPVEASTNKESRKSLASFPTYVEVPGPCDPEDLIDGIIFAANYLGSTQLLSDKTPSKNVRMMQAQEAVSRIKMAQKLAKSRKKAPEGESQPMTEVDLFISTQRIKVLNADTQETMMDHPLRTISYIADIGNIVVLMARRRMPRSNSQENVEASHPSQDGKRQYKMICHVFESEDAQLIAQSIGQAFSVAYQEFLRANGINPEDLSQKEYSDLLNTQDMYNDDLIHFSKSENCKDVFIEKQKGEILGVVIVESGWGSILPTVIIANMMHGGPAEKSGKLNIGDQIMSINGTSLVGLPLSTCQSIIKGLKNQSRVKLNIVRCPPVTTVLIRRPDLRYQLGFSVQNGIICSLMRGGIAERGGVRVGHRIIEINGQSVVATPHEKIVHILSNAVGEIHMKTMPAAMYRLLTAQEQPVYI
Sequence of Arf-GAP with SH3 domain, ANK repeat and PH domain-containing protein 1 (Q9ULH1 whole entry, the tested form may be a part): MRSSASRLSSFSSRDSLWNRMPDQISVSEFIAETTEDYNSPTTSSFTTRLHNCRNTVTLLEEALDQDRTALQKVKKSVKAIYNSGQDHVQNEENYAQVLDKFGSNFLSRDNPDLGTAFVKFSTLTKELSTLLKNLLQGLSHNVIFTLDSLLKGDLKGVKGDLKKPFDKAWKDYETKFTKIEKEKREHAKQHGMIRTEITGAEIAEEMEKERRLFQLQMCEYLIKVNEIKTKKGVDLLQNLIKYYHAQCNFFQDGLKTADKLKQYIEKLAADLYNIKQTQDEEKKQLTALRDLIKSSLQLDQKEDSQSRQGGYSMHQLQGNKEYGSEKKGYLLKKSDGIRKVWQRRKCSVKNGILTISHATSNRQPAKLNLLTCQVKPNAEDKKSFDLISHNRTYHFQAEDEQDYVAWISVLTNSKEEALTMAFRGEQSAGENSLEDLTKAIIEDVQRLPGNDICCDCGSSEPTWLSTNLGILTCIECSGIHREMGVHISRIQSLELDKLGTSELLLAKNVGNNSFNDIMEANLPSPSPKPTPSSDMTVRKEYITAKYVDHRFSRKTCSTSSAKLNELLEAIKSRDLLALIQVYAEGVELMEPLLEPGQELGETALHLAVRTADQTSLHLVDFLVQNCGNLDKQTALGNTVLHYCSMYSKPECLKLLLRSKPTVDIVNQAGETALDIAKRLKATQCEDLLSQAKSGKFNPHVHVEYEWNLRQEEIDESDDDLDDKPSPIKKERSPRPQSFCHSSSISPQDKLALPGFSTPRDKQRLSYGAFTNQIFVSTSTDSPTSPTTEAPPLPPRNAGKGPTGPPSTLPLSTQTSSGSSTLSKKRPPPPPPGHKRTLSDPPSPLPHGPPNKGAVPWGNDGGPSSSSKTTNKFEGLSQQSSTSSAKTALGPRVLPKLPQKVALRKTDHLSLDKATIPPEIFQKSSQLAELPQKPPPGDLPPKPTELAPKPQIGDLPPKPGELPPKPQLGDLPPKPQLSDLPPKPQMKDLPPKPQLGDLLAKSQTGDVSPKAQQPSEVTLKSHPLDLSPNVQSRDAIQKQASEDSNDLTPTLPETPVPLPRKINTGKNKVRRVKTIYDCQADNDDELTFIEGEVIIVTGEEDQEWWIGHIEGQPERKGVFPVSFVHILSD

For `Cc1nn(CCc2nnc(S)n2-c2cccc(Cl)c2)c(C)c1[N+](=O)[O-]`, the IC50 in [1], in [2] and in test [3] was > 59.6 µM (inactive) each time.
On to `CC(C)Cn1c(S)nnc1-c1ccco1`, for which the IC50 in test [1], in test [2] and in test [3] was > 59.6 µM (inactive) each time.
Turning to `CCCCn1c(=O)[nH]c(=O)c2c(C(=O)OCC)cc(-c3cccs3)nc21`, the IC50 in [4] was 0.582 µM (active). Moreover, the EC50 in [5] and in test [6] was > 350 µM (not active) in each case.
`COC(=O)c1ccc(NC(=O)c2ccc(NC(=O)c3ccco3)cc2)cc1`: the IC50 is > 100 µM (inactive) in test [7]; > 50 µM (inactive) in test [8]; 25.8 µM (inactive) in test [9]; 23 µM (active) in test [10]; 73 µM (active) in [11]; 5.25 µM (active) in test [12].
As for `Cc1ccc(C(=O)Nc2cccc(NC(=O)c3ccc(C)c([N+](=O)[O-])c3)n2)cc1[N+](=O)[O-]`, the IC50 in test [9] is 41.9 µM (inactive); in test [13] it was 4.55 µM (active).
Regarding `S=C(c1ccc(OCc2ccccc2)cc1)N1CCCC1`, the IC50 is > 9.98 µM (inactive) in [4]; 3.69 µM (active) in test [14]; 8.38 µM (active) in test [15]; 11.1 µM (active) in test [16]; 14 µM (active) in test [17].
In the case of `O=C(NCCn1cc(SCc2ccccc2F)c2ccccc21)c1c(F)cccc1F`, the IC50 in test [18] was 38.4 µM (inactive); in test [21], 3.49 µM (active). In addition, the EC50 in [19] and in [20] was > 29.9 µM (inactive) in each case.
Regarding `O=C(O)[C@H]1CCCC[C@H]1C(=O)NCCc1ccccc1`, the IC50 is > 29.9 µM (inactive) in test [22] and 7.35 µM (active) in test [24]. In addition, the EC50 in test [23] is 370 nM (active); in test [25], > 29.9 µM (inactive).
As for `Cc1cc2nc3n(c2cc1C)CC1CC(C(=O)NCCc2cccs2)N(C)C31` (centres undefined), the figures for the IC50 in test [22] and in test [24] were > 29.9 µM (inactive) and 8.5 µM (active), respectively. Further, the EC50 in test [23] was 2000 nM (active); in test [25], > 29.9 µM (inactive).
Take `COc1ccc(-n2nnnc2C(C2CC2)N2CCC(n3c(O)nc4ccccc43)CC2)cc1` (centres undefined): the IC50 in test [18] was > 29.9 µM (inactive); in test [26], 19.8 µM (inactive); in test [21], > 9.96 µM (active). In addition, the EC50 in test [19] is 22.4 µM (inactive); in test [20], > 29.9 µM (inactive).
